# In patent US11767298B2, “Substituted benzimidazoles as inhibitors of transforming growth factor-β kinase” (Duke University, priority 2016, dated 2023):
# How the values were obtained:
# PfPK9 = assay: UBC13 phosphorylation by PfPK9 (ADP luminescence assay); format: biochemical, P. falciparum; settings: compared to DMSO
# Method: Recombinant protein expression and enzyme activity assay. Recombinant GST-tagged PfPK9 was expressed in E. coli BL21(DE3) cells, purified to homogeneity, and the GST tag was cleaved with PreScission Protease (GE Healthcare). To test for inhibition of PfPK9, the ADP detection assay ADP-Glo (Promega) was used to determine ATPase activity of PfPK9 in the presence of the PfUBC13 protein substrate when treated with compounds 1 and 5. Approximately 500 nM PfPK9 was incubated with either compound (10 μM or 500 μM) for 5 min at RT in buffer containing 40 mM Tris, pH 7.5, 20 mM MgCl2, 2 mM MnCl2 and 1 mM DTT prior to assay initiation with 100 μM ATP. The assay was performed in white low-volume 384-well plates (Corning #3824) in triplicate. The assay plate was sealed and subsequently incubated for 8 hrs at 37° C. before ADP detection per manufacturer instructions. The final assay volume was 5 μL with a final concentration of 1% DMSO. A negative control was performed in 1% DMSO and heat inactivated PfPK9 (80° C. for 5 min) was used as a positive control. The luminescence intensity in each well was measured on an EnVision system. Data were normalized to the average luminescence signal of the negative control to provide relative ADP concentrations and graphs were constructed in GraphPad Prism. Data analyses were conducted from three independent experiments. […]
# [1] = tested on: K63-linked ubiquitination; assay: Western blot for K63-linked ubiquitination in Plasmodium blood stage; format: cell-based, P. falciparum; settings: 0.001-100 μM, 24 hr, ring-stage blood stage parasites
# Method: P. falciparum asexual blood-stage culture. P. falciparum 3D7 isolate was maintained under standard conditions in complete culturing medium [10.44 g/L RPMI 1640 (Invitrogen), 5.94 g/L HEPES (Invitrogen), 50 mg/L hypoxanthine (Sigma), 2.02 g/L sodium bicarbonate (Sigma), 5 g/L albuMAX II (Invitrogen), 25 mg/L gentamicin (Sigma), pH 7.2]. Parasite cultures were supplied with human red blood cells (Gulf Coast Regional Blood Center) at 1% hematocrit. To obtain synchronous cultures, Plasmodium parasites (at least 50% parasites were at the early-ring stage) were pelleted at 300×g for 7 min using a low brake setting and treated with 25 volume 5% D-sorbitol (Sigma) at 37° C. for 10 min. Treated parasites were then harvested and washed with 25 volume of complete culturing medium using the aforementioned centrifugation protocol, and diluted with the complete medium to 1% hematocrit to maintain the parasite culture at 37° C. and 5% CO2.
# Protein extraction and Western blot for K63-linked ubiquitination in Plasmodium blood stage. […] Total protein lysates were heated in SDS loading buffer for 5 min at 80° C., analyzed on 4-20% Tris-Glycine polyacrylamide gels (Novex, Life Technologies) and subsequently transferred to nitrocellulose membranes. […]
# MINK1 = MINK1 (Homo sapiens, UniProt Q8N4C8); assay: Kinase profiling (Dundee), MINK1; format: biochemical; settings: 10 μM
# Method: Kinase selectivity profiling. The selectivity profile of HS-206 to inhibit mammalian kinases was tested against a panel of 140 kinases at a single concentration of 10 μM. Tests were performed using a radiolabeld (^33P-ATP) filter-binding assay at the International Centre for Kinase Profiling at the University of Dundee, UK (http://www.kinase-screen.mrc.ac.uk/).
# This panel contains members of all major kinase families, including tyrosine kinases (TK), tyrosine kinase-like (TKL), sterile serine/threonine (STE), and CDK/MAPK/GSK/CLK (CMGC). […] For these kinases, IC50 values were determined (Table 1).
# 60 cell lines (NCI-60) = assay: NCI-60 Cell One-Dose Screen; format: cell-based; settings: 10 μM, 24 h
# Method: In order to examine the effect of HS-206 on cell viability of different cancers, a screen of 60 cell lines was performed at the NCI, called the NCI-60 Cell One-Dose Screen. […] This screen determined growth inhibition as an effect of HS-206 treatment over a period of 24 h.
# MINK1, sequence (Q8N4C8 whole entry): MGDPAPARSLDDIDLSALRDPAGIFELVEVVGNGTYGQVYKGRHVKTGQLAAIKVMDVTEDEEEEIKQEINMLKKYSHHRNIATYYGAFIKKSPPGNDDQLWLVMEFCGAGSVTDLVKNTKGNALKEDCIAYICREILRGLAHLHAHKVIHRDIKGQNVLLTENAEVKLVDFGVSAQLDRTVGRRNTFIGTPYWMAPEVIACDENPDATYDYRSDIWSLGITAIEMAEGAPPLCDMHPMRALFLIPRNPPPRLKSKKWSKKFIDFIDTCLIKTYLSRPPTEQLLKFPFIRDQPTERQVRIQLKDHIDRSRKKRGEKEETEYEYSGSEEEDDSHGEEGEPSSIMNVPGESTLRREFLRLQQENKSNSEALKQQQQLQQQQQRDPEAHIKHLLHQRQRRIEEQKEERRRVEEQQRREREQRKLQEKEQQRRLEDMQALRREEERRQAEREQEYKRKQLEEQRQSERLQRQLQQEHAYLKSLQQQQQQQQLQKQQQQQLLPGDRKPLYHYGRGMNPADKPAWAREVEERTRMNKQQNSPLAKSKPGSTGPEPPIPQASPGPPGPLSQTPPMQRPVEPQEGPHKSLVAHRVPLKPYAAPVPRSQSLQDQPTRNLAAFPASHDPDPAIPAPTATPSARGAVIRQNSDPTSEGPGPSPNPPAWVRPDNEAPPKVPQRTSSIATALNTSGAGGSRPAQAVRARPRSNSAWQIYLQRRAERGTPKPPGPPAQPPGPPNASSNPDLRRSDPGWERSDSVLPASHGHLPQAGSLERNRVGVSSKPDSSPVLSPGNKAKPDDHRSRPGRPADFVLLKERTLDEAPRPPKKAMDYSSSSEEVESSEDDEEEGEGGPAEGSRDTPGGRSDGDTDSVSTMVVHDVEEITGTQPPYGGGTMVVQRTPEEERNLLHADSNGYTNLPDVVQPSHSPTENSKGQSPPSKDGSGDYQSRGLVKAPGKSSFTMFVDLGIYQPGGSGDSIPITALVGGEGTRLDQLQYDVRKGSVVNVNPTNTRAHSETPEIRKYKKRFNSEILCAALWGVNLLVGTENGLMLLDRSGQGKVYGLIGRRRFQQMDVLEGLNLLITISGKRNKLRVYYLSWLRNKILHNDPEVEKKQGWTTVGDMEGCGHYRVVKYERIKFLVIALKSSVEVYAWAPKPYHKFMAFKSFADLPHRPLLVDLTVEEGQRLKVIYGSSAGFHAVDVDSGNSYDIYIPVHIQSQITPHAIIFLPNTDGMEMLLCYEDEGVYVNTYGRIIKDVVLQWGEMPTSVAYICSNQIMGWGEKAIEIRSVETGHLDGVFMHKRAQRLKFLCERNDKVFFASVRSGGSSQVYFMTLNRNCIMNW
structure (smiles),measurement,setting,value
"CCCn1c(NC(=O)c2cccc(C(N)=O)c2)nc2ccccc21 [HS-206 (1), (E)-N-(1-Propyl-1,3-dihydro-2H-benzo[d]imidazol-2-ylidene)isophthalamide]",UBC13 phosphorylation by PfPK9,PfPK9,significantly decreased
same,levels of K63-linked ubiquitinated proteins,[1],dose-dependent decrease
same,inhibition at 10 µM,MINK1,> 90%
same,"growth inhibition, one-dose screen","60 cell lines (NCI-60); colorectal (KM12), leukemia (HL-60), non-small cell lung cancer (NCI-H522)",most affected
same,"growth inhibition, one-dose screen","60 cell lines (NCI-60); melanoma (M14), renal (786-0), ovarian cancer (Ovcar-3)",little effect
